In paper PMC4322365, “A Ligand-observed Mass Spectrometry Approach Integrated into the Fragment Based Lead Discovery Pipeline” (Scientific Reports, 2015):
“And” between values parts separate entries of the source, which are not always exact repeats. Equal values may be shown once. Read-outs that look alike come from different tables or passages of the source.

Experiments:
HCV RNA polymerase NS5B [1] = molecular target: T1, HCV RNA polymerase NS5B (Hepatitis C virus genotype 1b, UniProt P26663); assay: Ligand-observed MS secondary screen of 7 subdivided fragment cocktails; assay type: binding; conditions: 7 cocktails of 50 or 84 fragments; two replicates separated by a slash; S/N > 10 positive; ND: not detected by MS analysis
T1 construct: NS5B with a C-terminal 10-His tag was expressed in E. coli; 10-His (C); made in house; host or cells: E. coli
Procedure: To reduce possible false-positives from the primary screen, the library was divided to 7 cocktails among which six consist of 50 fragments and the last one of 84 fragments. Individual cocktails were incubated with NS5B protein prior to protein complex isolation and ligand-observed MS analysis, resulting in a total of 12 positive hits after screening the seven cocktails (Figure 1C). […] Thus the confidence in hit identification was enhanced by selecting hits repetitively found from the two screens against cocktails of different diversity. It is noteworthy that the preliminary hits missed in the secondary screen might be due to either nonspecific binding or co-operative binding that only occurred when the entire library was incubated with the target. Apart from the 12 hits, 25 fragments with S/N < 10 from the secondary screen were regarded non-binders and discarded.
(§1) In the primary screening, a mixture of 384 fragments (each at a final concentration of 25 μM) and NS5B at 50 μM was prepared in the binding buffer of 20 mM MES (pH 6.5), 300 mM NaCl and 10% glycerol, and incubated for 40 min at 25°C. All fragments of the library were either purchased from Sigma or synthesized in our laboratory, and their structural diversity was summarized in Figure S4. The mixture was then filtered through an ultrafiltration membrane (50 KD MW cut-off) by centrifugation at 13000 g for 10 min at […]. The protein complexes bound with different fragments were washed twice with 10 mM ammonium acetate (pH 6.5) followed by centrifugation to remove the unbound fragments. The resulting solution of the complexes was transferred to a new centrifugal tube, and the ligands were dissociated from NS5B with 90% methanol in deionized water. The released ligands were then separated from the denatured protein by centrifugation at 13000 g for 10 min at 20°C. The supernatant containing the ligands was evaporated by a speed vacuum, reconstituted in 80% methanol, and analyzed by LC/MS. The protein-free control was prepared by using the binding buffer substitute for NS5B during incubation and it underwent the same process as the NS5B incubated sample. In the secondary screen, 384 fragments were divided into 7 cocktails, each consisting of 50 fragments except for the seventh cocktail of 84 fragments. Each cocktail was then incubated with NS5B in the binding buffer at the same final concentration as in the primary screen. […] Ultrafiltration and complex dissociation were performed as described earlier to obtain fragment ligands. Samples were all prepared in duplicate and analyzed separately.
Aliquots of reconstituted ultrafiltrates were analyzed on a Waters Synapt G1 high-dfinition mass spectrometer (Milford, MA) equipped with a Waters Acquity UPLC system. UPLC separation was carried out on a Waters Acquity BEH C18 column (2.1 mm × 50 mm, 1.7 μm) at a flow rate of 200 μL/min, with the mobile phases of water/0.1% formic acid (A) and acetonitrile/0.1% formic acid (B). In the primary screen, the LC gradient was as follows: 0–15 min, 2–50% B; 15–17 min, 50%–90% B; 17–20 min, 90% B. In the secondary screen and the validation assay, the first fraction of gradient (2–50% B) was shortened to 6 min. The regular ESI ion source operated in both positive- and negative-ion modes. Mass spectra were acquired within a mass range from 100 to 800 m/z, with capillary voltage 3.0 kV in the positive mode and 2.6 kV in the negative mode, sample cone voltage 54 V (positive mode) and 45 V (negative mode), extraction cone voltage 4.7 V (positive mode) and 4.0 V (negative mode), desolvation temperature 350°C, source temperature 100°C, and desolvation gas flow 500 L/h. External calibration with a solution of sodium formate achieved mass accuracy within 10 ppm. LC/MS chromatogram extraction and peak area calculation for specific fragments were performed by use of MassLynx software (v4.1, Waters) based on accurate mass measurement of the compound with a tolerance of 0.01 Da. […]

HCV RNA polymerase NS5B [2] = molecular target: T1, HCV RNA polymerase NS5B; assay: biochemical; assay type: binding; conditions: for S/N in the validation assay / Binding degree (fraction of fragment ligands over total fragment in incubation): 12-hit mixture; for S/N in the validation assay: two replicates separated by a slash, S/N > 10 positive, ND: not detected by MS analysis; for MS S/N: Figure 2B, S/N factors from two independent experiments, legend says validation assay; for LE (ligand efficiency): derived from Kd at P/L 1:1 and heavy atom count; for Binding degree (fraction of fragment ligands over total fragment in incubation): P/L 2:1, 1:1, 1:2, theoretical value for about 1 mM affinity
Procedure: Binding degree of each fragment represented by the fraction of fragment ligands over the total amount of fragments during incubation reflects the relative order of binding strengths.
In order to determine the dissociation constant of each fragment ligand, we prepared calibration curves for the MS responses of ten fragments in a mixture (Figure S1) and measured the recovery rate of each fragment (Table S3), which were used to derive the actual concentrations of fragments bound to the target. Kd values were then calculated based on the measured concentrations of fragment ligands dissociated from the target (Table S3). […] Ligand efficiency (LE) values were then derived from Kd's as a measure to justify which fragments to further optimize and elaborate in the FBLD pipeline[46][47] (Figure 2A). […] SPR was then implemented for Kd determination for these fragment hits.
as §1, with “All” for “In the primary screening, a mixture of 384 fragments (each at a final concentration of 25 μM) and NS5B at 50 μM was prepared in the binding buffer of 20 mM MES (pH 6.5), 300 mM NaCl and 10% glycerol, and incubated for 40 min at 25°C. All”, “In the secondary screen, 384 fragments were divided into 7 cocktails, each consisting of 50 fragments except for the seventh cocktail of 84 fragments.” left out

[3] = P/L = 1:1, protein 25 μM, estimated from MS-measured bound ligand concentration, read-out: Kd
[4] = P/L = 1:2, protein 25 μM, read-out: Kd
[5] = P/L = 2:1, protein 25 μM, read-out: Kd
[6] = Kd, P/L = 1:1, protein 25 μM, estimated from MS-measured bound ligand concentration

T1 sequence (P26663 2420-3010): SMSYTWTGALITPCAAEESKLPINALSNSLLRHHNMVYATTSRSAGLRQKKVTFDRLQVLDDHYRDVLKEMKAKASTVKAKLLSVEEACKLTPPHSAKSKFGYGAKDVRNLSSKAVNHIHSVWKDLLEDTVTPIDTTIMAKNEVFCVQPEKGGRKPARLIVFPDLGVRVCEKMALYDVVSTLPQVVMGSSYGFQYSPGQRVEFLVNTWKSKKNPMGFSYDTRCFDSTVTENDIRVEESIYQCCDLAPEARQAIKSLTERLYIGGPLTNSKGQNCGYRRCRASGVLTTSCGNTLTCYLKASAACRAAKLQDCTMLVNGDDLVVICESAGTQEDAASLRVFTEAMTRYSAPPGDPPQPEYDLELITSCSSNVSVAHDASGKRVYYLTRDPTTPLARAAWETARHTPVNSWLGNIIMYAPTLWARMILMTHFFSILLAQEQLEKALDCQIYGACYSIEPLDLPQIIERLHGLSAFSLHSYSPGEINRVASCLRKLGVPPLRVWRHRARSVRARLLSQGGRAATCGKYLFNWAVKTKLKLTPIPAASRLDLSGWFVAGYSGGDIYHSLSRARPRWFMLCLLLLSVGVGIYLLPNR

| Compound | S/N in the 2nd screen (HCV RNA polymerase NS5B [1]) | S/N in the validation assay (HCV RNA polymerase NS5B [2]) | MS S/N (HCV RNA polymerase NS5B [2]) | Kd (HCV RNA polymerase NS5B [2]; [3]) [mM] | Kd (HCV RNA polymerase NS5B [2]; [4]) [mM] | Kd (HCV RNA polymerase NS5B [2]; [5]) [mM] | LE (ligand efficiency) (HCV RNA polymerase NS5B [2]) | Binding degree (fraction of fragment ligands over total fragment in incubation) (HCV RNA polymerase NS5B [2]) [%] | Kd (HCV RNA polymerase NS5B [2]; [6]) [mM] | Kd (HCV RNA polymerase NS5B [2]; Kd, P/L = 1:2, protein 25 μM) [mM] | Kd (HCV RNA polymerase NS5B [2]; Kd, P/L = 2:1, protein 25 μM) [mM] |
| --- | --- | --- | --- | --- | --- | --- | --- | --- | --- | --- | --- |
| Oc1ccc(F)c(Cl)c1 [Fragment 85] | 79.0 and 86.0 | 60.0 and 53.0 | 79 and 86 | 5.67 ± 0.34 | 6.8 ± 0.99 | 6.2 ± 0.51 | 0.33 | – | – | – | – |
| N#CCc1ccc(O)cc1 [Fragment 114] | 103.0 and 91.0 | 983.0 and 1198.0 | 103 and 91 | – | – | – | 0.40 | ~2.4 | 1.01 ± 0.06 | 1.2 | 1.13 ± 0.25 |
| Cc1ccc2oc(=O)ccc2c1 [Fragment 117] | 34.3 and 39.6 | 111.0 and 122.0 | 34 and 40 | 9.31 ± 0.23 | 9.18 ± 2.75 | 8.96 ± 0.84 | 0.22 | – | – | – | – |
| Cn1c(=O)cc(O)c2ccccc21 [Fragment 130] | 48.4 and 49.4 | 378.0 and 376.0 | 48 and 49 | 1.19 ± 0.08 | 1.37 ± 0.04 | 0.95 ± 0.08 | 0.30 | ~2.4 | – | – | – |
| Cc1cc(N)n(-c2ccccc2)n1 [Fragment 131] | 23.1 and 19.4 | 56.0 and 46.0 | 23 and 19 | 13.4 ± 1.98 | 7.29 ± 0.19 | 12.7 ± 2.03 | 0.20 | – | – | – | – |
| Nc1ccc(C(F)(F)F)cn1 [Fragment 162] | 19.7 and 17.3 | 466.0 and 513.0 | 20 and 17 | 8.96 ± 2.49 | 9.53 ± 0.26 | 10.2 ± 1.3 | 0.25 | – | – | – | – |
| O=C(O)c1ccc(C(F)(F)F)cc1 [Fragment 204] | 22.4 and 19.8 | 21.0 and 23.0 | 22 and 20 | 4.04 ± 0.34 | 5.27 | 3.78 ± 0.35 | 0.25 | – | – | – | – |
| Oc1ccc(SC(F)(F)F)cc1 [Fragment 237] | 29.0 and 36.0 | 212.0 and 196.0 | 29 and 36 | 5.64 ± 0.06 | 6.45 ± 1.67 | 5.19 ± 0.46 | 0.25 | – | – | – | – |
| N#CC(c1ccccc1)N1CCOCC1 (stereo not drawn) [Fragment 328] | 17.4 and 16.3 | 170.0 and 155.0 | 17 and 16 | – | – | – | 0.14 | – | 20 | 26.4 ± 7.92 | 23.5 ± 2.65 |
| Cc1nc2ccccc2nc1C [Fragment 339] | 66.2 and 62.4 | 172.0 and 223.0 | 66 and 62 | – | – | – | 0.22 | – | 10.2 ± 0.45 | 8.95 ± 2.03 | 11.2 ± 1.45 |
